{
  "source": "paper PMC5727262",
  "about": "“Molecular mechanism of K65 acetylation-induced attenuation of Ubc9 and the NDSM interaction” (Scientific Reports, 2017)",
  "key": {"Ac-Ubc9K65": {"target": "T1, Ac-Ubc9K65 (Homo sapiens, UniProt P63279)", "T1 construct": "made in house; host or cells: E. coli BL21 (DE3) with pAcKRS-3 and pCDF PylT-1-Ubc9 (amber codon at K65), fed acetyl-lysine", "T1 sequence (P63279 2-158)": "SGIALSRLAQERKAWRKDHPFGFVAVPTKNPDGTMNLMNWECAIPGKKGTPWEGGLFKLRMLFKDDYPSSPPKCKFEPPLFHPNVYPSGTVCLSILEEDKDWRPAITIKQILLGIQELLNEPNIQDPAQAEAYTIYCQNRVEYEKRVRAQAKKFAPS", "assay": "ITC binding of sumoylation-motif peptides to K65-acetylated Ubc9", "details": "25 °C, pH 8.0, 20 mM potassium phosphate, 100 mM NaCl, 1:1 binding stoichiometry assumed, triplicate measurements", "experimental": "(§1) ITC binding experiments were used to quantify the effect of Ubc9 acetylation on NDSM substrate binding (Fig. 2A). […] The dissociation constants for Elk1 and CBP were 70 and 57 μM, respectively (Fig. 2C and D), which were roughly similar to the dissociation constant of 56 μM obtained for the more acidic Calpain2 (Fig. 2E). Contrary to our expectations, RanGAP1 bound more strongly than the NDSMs with a dissociation constant of 13 μM. […] Similarly, not every acidic residue from the NDSM contributed equally to Ubc9 binding and even positions ×1 and ×2 could be potentially deciding factors. We exploited the long acidic stretch of Calpain2 in additional studies described below to explain this phenomenon. […] The observed switching from exothermic versus endothermic binding of the NDSM versus SM containing peptides is surprising. We speculate that the long negatively charged tail of NDSM may interact with Ubc9 in such a way that it free up more Ubc9-bound water molecules, resulting in an overall entropy increase. More work need to be done to fully understand its implication in binding mechanism.\n(§2) Figure 2 Effect of K65 acetylation on Ubc9 affinity for substrates. (A) Summary of the thermodynamic parameters obtained from triplicate isothermal titration calorimetry (ITC) measurements. Representative ITC thermograms for Ubc9 binding to the RanGAP1 (B), Elk1 (C), CBP (D), and Calpain2 (E) peptides. The heat absorbed (or released) post-injection, after correcting for the heat of dilution, is shown in lower panels. […]\n(§3) The ITC experiments were repeated twice at 25 °C by a controlled 2 μl addition of peptide to 200 μl of WT or Ac-Ubc9K65 in pH 8.0 buffer containing 20 mM potassium phosphate and 100 mM NaCl using an iTC200 calorimeter (GE Healthcare, Parsippany, NJ, USA). The first data point of each experiment was excluded from analysis and the baseline-corrected data were analyzed using Origin 7.0 software assuming 1:1 binding stoichiometry."}, "Ubc9 (WT)": {"target": "T2, Ubc9 (WT) (Homo sapiens, UniProt P63279)", "T2 construct": "made in house; host or cells: E. coli (stated as BL21 (DE3) for the acetylated variant)", "T2 sequence (P63279 whole entry)": "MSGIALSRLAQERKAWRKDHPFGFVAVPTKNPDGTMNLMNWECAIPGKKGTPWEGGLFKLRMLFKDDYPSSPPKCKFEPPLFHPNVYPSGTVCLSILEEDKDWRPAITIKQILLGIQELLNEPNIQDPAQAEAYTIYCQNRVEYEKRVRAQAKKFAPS", "assay": "ITC binding of sumoylation-motif peptides to WT Ubc9", "details": "25 °C, pH 8.0, 20 mM potassium phosphate, 100 mM NaCl, 1:1 binding stoichiometry assumed, triplicate measurements", "experimental": "as §1, §2, §3"}},
  "note": "Peptide text beside a SMILES is read from it.",
  "data": [
    {"compound": "CC(C)C[C@H](NC(=O)[C@H](CCC(=O)O)NC(=O)[C@H](CCC(=O)O)NC(=O)[C@H](CCCCN)NC(=O)[C@@H]1CCCN1C(=O)CNC(=O)[C@H](CCC(=O)O)NC(=O)[C@@H](NC(=O)[C@H](CCCCN)NC(=O)[C@@H](NC(=O)[C@H](CCC(=O)O)NC(=O)[C@@H]1CCCN1C(=O)[C@@H]1CCCN1C(=O)[C@H](CC(C)C)NC(=O)[C@H](C)NC(=O)[C@@H](N)CCCNC(=N)N)C(C)C)C(C)C)C(=O)N[C@@H](CCC(=O)O)C(=O)N[C@H](C(=O)N[C@@H](C)C(=O)NCC(=O)O)C(C)C", "note": "[Elk1] (H-RALPPEVKVEGPKEELEVAG-OH)", "values": [
      {"measurement": "Kd", "setting": "Ac-Ubc9K65", "result": 103, "unit": "µM"},
      {"measurement": "Kd", "setting": "Ubc9 (WT)", "result": "70.2 ± 1.3", "unit": "µM"}
    ]},
    {"compound": "CC[C@H](C)[C@H](NC(=O)[C@H](C)NC(=O)[C@H](CCCCN)NC(=O)[C@@H](NC(=O)[C@H](CCCCN)NC(=O)[C@H](CC(=O)O)NC(=O)[C@H](CCC(=O)O)NC(=O)[C@H](CO)NC(=O)[C@H](CCCCN)NC(=O)[C@H](CC(C)C)NC(=O)[C@H](CC(C)C)NC(=O)CNC(=O)[C@H](CCSC)NC(=O)[C@H](Cc1c[nH]cn1)NC(=O)[C@@H](NC(=O)[C@@H](N)CC(C)C)C(C)C)C(C)C)C(=O)N[C@@H](C)C(=O)N[C@@H](CC(N)=O)C(=O)N[C@@H](CC(C)C)C(=O)N[C@@H](Cc1ccc(O)cc1)C(=O)O", "note": "[RanGAP1, reference compound] (H-LVHMGLLKSEDKVKAIANLY-OH)", "values": [
      {"measurement": "Kd", "setting": "Ac-Ubc9K65", "result": "13.5 ± 2.2", "unit": "µM"},
      {"measurement": "Kd", "setting": "Ubc9 (WT)", "result": "13.5 ± 0.9", "unit": "µM"}
    ]},
    {"compound": "CC[C@H](C)[C@H](NC(=O)[C@H](CC(C)C)NC(=O)[C@H](Cc1ccc(O)cc1)NC(=O)[C@H](CCC(N)=O)NC(=O)[C@@H]1CCCN1)C(=O)N[C@@H](CCCCN)C(=O)N[C@@H](CC(C)C)C(=O)N[C@@H](CCC(=O)O)C(=O)N[C@@H](CCC(=O)O)C(=O)N[C@@H](CCC(=O)O)C(=O)N[C@@H](CC(=O)O)C(=O)N[C@@H](CCC(=O)O)C(=O)N[C@@H](CC(=O)O)C(=O)N[C@@H](CCC(=O)O)C(=O)N[C@@H](CCC(=O)O)C(=O)N[C@@H](CC(=O)O)C(=O)NCC(=O)N[C@@H](CCC(=O)O)C(=O)N[C@@H](CO)C(=O)NCC(=O)N[C@@H](CS)C(=O)N[C@H](C(=O)O)[C@@H](C)O", "note": "[Calpain2] (H-PQYLIKLEEEDEDEEDGESGCT-OH)", "values": [
      {"measurement": "Kd", "setting": "Ac-Ubc9K65", "result": "80.3 ± 2.7", "unit": "µM"},
      {"measurement": "Kd", "setting": "Ubc9 (WT)", "result": "55.8 ± 3.3", "unit": "µM"}
    ]},
    {"compound": "CC(C)[C@H](NC(=O)[C@H](CCC(=O)O)NC(=O)[C@@H](NC(=O)[C@H](CCCCN)NC(=O)[C@@H](NC(=O)[C@H](CCC(=O)O)NC(=O)[C@@H]1CCCN1C(=O)[C@H](CCCCN)NC(=O)[C@H](CCCCN)NC(=O)[C@H](CCC(=O)O)NC(=O)[C@@H](N)CC(=O)O)C(C)C)C(C)C)C(=O)N[C@@H](CCCCN)C(=O)N[C@@H](CCC(=O)O)C(=O)N[C@@H](CCC(=O)O)C(=O)N[C@@H](CCC(=O)O)C(=O)N[C@@H](CCC(=O)O)C(=O)N[C@@H](CO)C(=O)N[C@@H](CO)C(=O)N[C@@H](CO)C(=O)N[C@@H](CC(N)=O)C(=O)O", "note": "[CBP] (H-DEKKPEVKVEVKEEEESSSN-OH)", "values": [
      {"measurement": "Kd", "setting": "Ac-Ubc9K65", "result": 105, "unit": "µM"},
      {"measurement": "Kd", "setting": "Ubc9 (WT)", "result": "57.4 ± 2.8", "unit": "µM"}
    ]}
  ]
}
